Source: patent publication US20230093861A1, “RAPAMYCIN ANALOGS AS MTOR INHIBITORS” (Revolution Medicines, Inc., priority 2017, published 2023)

Assays:
P-P70S6K (T389) = test: Cell based AlphaLISA assay, inhibition of P-P70S6K (T389) (mTORC1 substrate phosphorylation) in MDA-MB-468 cells; conditions: Homo sapiens, 4 h, AlphaLISA, two to four hours at 37° C., read-out: pIC50 for Inhibition of mTORC1 and mTORC2 Substrate Phosphorylation, P-P70S6K-(T389) (converted)
Outline: (§1)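 AlphaLISA SureFire Ultra read-out of P-4E-BP1 (T37/46), P-P70S6K (T389) and P-Akt (S473) in MDA-MB-468 cells after compound treatment; cells lysed in kit buffer. Alpha signal read in duplicate; IC50 from normalized concentration-response regression with control-based normalization.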

P-4E-BP1 (T37/46) = test: Cell based AlphaLISA assay, inhibition of P-4E-BP1 (T37/46) (mTORC1 substrate phosphorylation) in MDA-MB-468 cells; conditions: Homo sapiens, MDA-MB-468, 4 h, AlphaLISA, two to four hours at 37° C., read-out: pIC50 for Inhibition of mTORC1 and mTORC2 Substrate Phosphorylation, P-4E-BP1-(T37/46) (converted)
Outline: as §1

P-Akt (S473) = test: Cell based AlphaLISA assay, inhibition of P-Akt (S473) (mTORC2 substrate phosphorylation) in MDA-MB-468 cells; conditions: Homo sapiens, MDA-MB-468, 4 h, AlphaLISA, two to four hours at 37° C., read-out: pIC50 for Inhibition of mTORC1 and mTORC2 Substrate Phosphorylation, p-AKT 1/2/3 -(S473) (converted)
Outline: as §1

SMILES	IC50 (P-P70S6K (T389)) [nM]	IC50 (P-4E-BP1 (T37/46)) [nM]	IC50 (P-Akt (S473)) [nM]
CO[C@H]1C[C@@H]2CC[C@@H](C)[C@@](O)(O2)C(=O)C(=O)N2CCCC[C@H]2C(=O)O[C@H]([C@H](C)C[C@@H]2CC[C@@H](OCc3cccc(-c4cnc(N5CCN(C(=O)CCc6cn(CCOCCOCCOCCC(=O)NCCCCn7nc(-c8ccc9oc(N)nc9c8)c8c(N)ncnc87)nn6)CC5)nc4)c3)[C@H](OC)C2)CC(=O)[C@H](C)/C=C(\C)[C@@H](O)[C@@H](OC)C(=O)[C@H](C)C[C@H](C)/C=C/C=C/C=C/1C [Example 46]	< 1	< 3.16	3.16 to 31.6
CO[C@H]1C[C@@H]2CC[C@@H](C)[C@@](O)(O2)C(=O)C(=O)N2CCCC[C@H]2C(=O)O[C@H]([C@H](C)C[C@@H]2CC[C@@H](O)[C@H](OC)C2)C[C@@H](O)[C@H](C)/C=C(\C)[C@@H](O)[C@@H](OC)C(=NOCc2cn(CCOCCOCCOCCOCCOCCOCCOCCOCCC(=O)NCCCCn3nc(-c4cnc5[nH]ccc5c4)c4c(N)ncnc43)nn2)[C@H](C)C[C@H](C)/C=C/C=C/C=C/1C [Example 79]	< 1	3.16 to 31.6	31.6 to 1000
CO[C@H]1C[C@@H]2CC[C@@H](C)[C@@](O)(O2)C(=O)C(=O)N2CCCC[C@H]2C(=O)O[C@H]([C@H](C)C[C@@H]2CC[C@H](n3cc(CCCC(=O)NCCOCCOCCOCCC(=O)NCCOCCOCCOCCOCCC(=O)NCCCCn4nc(-c5ccc6oc(N)nc6c5)c5c(N)ncnc54)nn3)[C@H](OC)C2)CC(=O)[C@H](C)/C=C(\C)[C@@H](O)[C@@H](OC)C(=O)[C@H](C)C[C@H](C)/C=C/C=C/C=C/1C [Example 132]	1 to 10	3.16 to 31.6	31.6 to 1000
CO[C@H]1C[C@@H]2CC[C@@H](C)[C@@](O)(O2)C(=O)C(=O)N2CCCC[C@H]2C(=O)O[C@H]([C@H](C)C[C@@H]2CC[C@@H](O)[C@H](OC)C2)C[C@@H](OC)[C@H](C)/C=C(\C)[C@@H](O)[C@@H](OC)C(=NOCc2cn(CCOCCOCCOCCOCCOCCNC(=O)CCC(=O)NCCCCn3nc(-c4ccc5oc(N)nc5c4)c4c(N)ncnc43)nn2)[C@H](C)C[C@H](C)/C=C/C=C/C=C/1C [Example 105]	1 to 10	3.16 to 31.6	31.6 to 1000
COc1cccc2cc(-c3nc([C@H]4CC[C@H](C(=O)NCCOCCOCCNC(=O)CCOCCOCCOCCOCCn5cc(CCCCO[C@@H]6CC[C@@H](C[C@@H](C)[C@@H]7CC(=O)[C@H](C)/C=C(\C)[C@@H](O)[C@@H](OC)C(=O)[C@H](C)C[C@H](C)/C=C/C=C/C=C(\C)[C@@H](OC)C[C@@H]8CC[C@@H](C)[C@@](O)(O8)C(=O)C(=O)N8CCCC[C@H]8C(=O)O7)C[C@H]6OC)nn5)CC4)n4ncnc(N)c34)[nH]c12 [Example 187]	< 1	< 3.16	3.16 to 31.6
CO[C@H]1C[C@@H]2CC[C@@H](C)[C@@](O)(O2)C(=O)C(=O)N2CCCC[C@H]2C(=O)O[C@H]([C@H](C)C[C@@H]2CC[C@@H](OCCCCc3cn(CCOCCOCCOCCOCCNC(=O)CCCCC(=O)NCCCCn4nc(-c5ccc6oc(N)nc6c5)c5c(N)ncnc54)nn3)[C@H](OC)C2)CC(=O)[C@H](C)/C=C(\C)[C@@H](O)[C@@H](OC)C(=O)[C@H](C)C[C@H](C)/C=C/C=C/C=C/1C [Example 103]	< 1	< 3.16	3.16 to 31.6
COc1cccc2cc(-c3nc([C@H]4CC[C@H](C(=O)NCCOCCOCCOCCNC(=O)CCOCCOCCOCCOCCn5cc(CCCCO[C@@H]6CC[C@@H](C[C@@H](C)[C@@H]7C[C@@H](OC)[C@H](C)/C=C(\C)[C@@H](O)[C@@H](OC)C(=O)[C@H](C)C[C@H](C)/C=C/C=C/C=C(\C)[C@@H](OC)C[C@@H]8CC[C@@H](C)[C@@](O)(O8)C(=O)C(=O)N8CCCC[C@H]8C(=O)O7)C[C@H]6OC)nn5)CC4)n4ncnc(N)c34)[nH]c12 [Example 190]	< 1	3.16 to 31.6	31.6 to 1000
CO[C@H]1C[C@@H]2CC[C@@H](C)[C@@](O)(O2)C(=O)C(=O)N2CCCC[C@H]2C(=O)O[C@H]([C@H](C)C[C@@H]2CC[C@H](n3cc(CCCC(=O)NCCOCCOCCOCCC(=O)NCCOCCOCCC(=O)NCCCCn4nc(-c5cc6cc(O)ccc6[nH]5)c5c(N)ncnc54)nn3)[C@H](OC)C2)CC(=O)[C@H](C)/C=C(\C)[C@@H](O)[C@@H](OC)C(=O)[C@H](C)C[C@H](C)/C=C/C=C/C=C/1C [Example 129]	1 to 10	31.6 to 1000	> 1000
CO[C@H]1C[C@@H]2CC[C@@H](C)[C@@](O)(O2)C(=O)C(=O)N2CCCC[C@H]2C(=O)O[C@H]([C@H](C)C[C@@H]2CC[C@H](n3cc(-c4cccc(C(=O)NCCOCCOCCOCCC(=O)NCCOCCOCCOCCOCCC(=O)NCCCCn5nc(-c6ccc7oc(N)nc7c6)c6c(N)ncnc65)c4)nn3)[C@H](OC)C2)CC(=O)[C@H](C)/C=C(\C)[C@@H](O)[C@@H](OC)C(=O)[C@H](C)C[C@H](C)/C=C/C=C/C=C/1C [Example 139]	1 to 10	3.16 to 31.6	3.16 to 31.6
CO[C@H]1C[C@@H]2CC[C@@H](C)[C@@](O)(O2)C(=O)C(=O)N2CCCC[C@H]2C(=O)O[C@H]([C@H](C)C[C@@H]2CC[C@H](n3cc(CCCC(=O)NCCOCCOCCOCCC(=O)NCCOCCOCCC(=O)NCCCCn4nc(-c5ccc6oc(N)nc6c5)c5c(N)ncnc54)nn3)[C@H](OC)C2)CC(=O)[C@H](C)/C=C(\C)[C@@H](O)[C@@H](OC)C(=O)[C@H](C)C[C@H](C)/C=C/C=C/C=C/1C [Example 128]	1 to 10	3.16 to 31.6	31.6 to 1000
CO[C@H]1C[C@@H]2CC[C@@H](C)[C@@](O)(O2)C(=O)C(=O)N2CCCC[C@H]2C(=O)O[C@H]([C@H](C)C[C@@H]2CC[C@@H](O)[C@H](OC)C2)C/C(=N/OCc2cn(CCOCCOCCOCCOCCOCCOCCOCCOCCC(=O)NCCCCn3nc(-c4ccc5oc(N)nc5c4)c4c(N)ncnc43)nn2)[C@H](C)/C=C(\C)[C@@H](O)[C@@H](OC)C(=O)[C@H](C)C[C@H](C)/C=C/C=C/C=C/1C [Example 63]	10 to 1000	31.6 to 1000	31.6 to 1000
CO[C@H]1C[C@@H]2CC[C@@H](C)[C@@](O)(O2)C(=O)C(=O)N2CCCC[C@H]2C(=O)O[C@H]([C@H](C)C[C@@H]2CC[C@H](n3cc(-c4cnc(N5CCN(c6ncc(C(=O)NCCOCCOCCOCCC(=O)NCCCCn7nc(-c8cc9cc(O)ccc9[nH]8)c8c(N)ncnc87)cn6)CC5)nc4)nn3)[C@H](OC)C2)CC(=O)[C@H](C)/C=C(\C)[C@@H](O)[C@@H](OC)C(=O)[C@H](C)C[C@H](C)/C=C/C=C/C=C/1C [Example 114]	< 1	> 1000	> 1000
CO[C@H]1C[C@@H]2CC[C@@H](C)[C@@](O)(O2)C(=O)C(=O)N2CCCC[C@H]2C(=O)O[C@H]([C@H](C)C[C@@H]2CC[C@@H](OCCCCc3cn(CCOCCOCCOCCOCCOCCOCCOCCOCCC(=O)NCCCCn4ncc5c(N)ncnc54)nn3)[C@H](OC)C2)CC(=O)[C@H](C)/C=C(\C)[C@@H](O)[C@@H](OC)C(=O)[C@H](C)C[C@H](C)/C=C/C=C/C=C/1C [Example 5]	< 1	31.6 to 1000	> 1000
